Measurements taken from patent US20260199316A1, “SOLID DISPERSION, PREPARATION METHOD THEREFOR, AND USE THEREOF” (HANGZHOU GLUBIO PHARMACEUTICAL CO., LTD, priority 2022, published 2026).
Values after ≈ are worked out from the molar mass of the structure shown.

Experiments:
Assay type in all cases: physicochemical
[1] = Solubility of rapid solvent evaporation products in FaSSIF
Method: About 10 mg of the API control of the compound of formula A and 40 mg of the polymer carrier were transferred to 1 mL of DCM:EtOH=9:1 (v/v) to prepare a solution with 20% drug loading. The resulting clear solution was rapidly evaporated at 80° C. until there was no liquid to prepare a solid dispersion. The API control of the compound of formula A was also treated separately in the same manner.

[2] = Four-week solid stability study of API+HPC SSL solid dispersions
Method: All solid dispersions with formulation of API+HPC SSL were stored at 25° C./60% RH (open) and 40° C./75% RH (sealed). After one week and four weeks (1 w and 4 w), the sample appearance was visually observed, the crystal form change was tested by XRPD, and the sample purity was analyzed by HPLC. The results are shown in Tables 11 to 12 and FIGS. 37 to 38.

[3] = One-week solid stability study of solid dispersions
Method: According to Table 6, three solid dispersions, namely, formulation of API+Soluplus, formulation of API+PVP VA64, and formulation of API+HPC SSL, were stored at 25° C./60% RH (open) and 40° C./75% RH (open) for one week, the appearance of the sample was visually observed and the purity of the samples was analyzed by HPLC.
Therefore, the storage of solid dispersions should avoid exposure to high temperature and high humidity conditions to prevent chemical degradation.

O=C1CC[C@H](N2Cc3cc(C(=O)N[C@H](c4ccc(Cl)cn4)C4CCC4)ccc3C2=O)C(=O)N1 [API control, N—((S)-(5-chloropyridin-2-yl)(cyclobutyl)methyl)-2-((S)-2,6-dioxopiperidin-3-yl)-1-oxoisoindoline-5-carboxamide]
solubility ([1]; 0.25 h): 470 µg/mL (≈ 1010 µM) | solubility ([1]; 0.5 h): 460 µg/mL (≈ 985 µM) | solubility ([1]; 0.75 h): 490 µg/mL (≈ 1050 µM) | solubility ([1]; 1 h): 510 µg/mL (≈ 1090 µM) | solubility ([1]; 2 h): 440 µg/mL (≈ 942 µM) | Contents ([2]; 25° C./60% RH open, 1 w): 96.84% | Impurities ([2]; 25° C./60% RH open, 1 w): 0.81% | RRT 0.92 ([2]; 25° C./60% RH open, 1 w): 0.05% | RRT 0.93 ([2]; 25° C./60% RH open, 1 w): 0.10% | RRT 0.95 ([2]; 25° C./60% RH open, 1 w): 0.09% | RRT 0.96 ([2]; 25° C./60% RH open, 1 w): 0.14% | RRT 1.00 ([2]; 25° C./60% RH open, 1 w): 99.20% | RRT 1.10 ([2]; 25° C./60% RH open, 1 w): 0.32% | RRT 1.17 ([2]; 25° C./60% RH open, 1 w): 0.10% | Contents ([2]; 25° C./60% RH open, 4 w): 101.1% | Impurities ([2]; 25° C./60% RH open, 4 w): 0.70% | RRT 0.92 ([2]; 25° C./60% RH open, 4 w): <LOQ | RRT 0.93 ([2]; 25° C./60% RH open, 4 w): 0.07% | RRT 0.95 ([2]; 25° C./60% RH open, 4 w): 0.09% | RRT 0.96 ([2]; 25° C./60% RH open, 4 w): 0.14% | RRT 1.00 ([2]; 25° C./60% RH open, 4 w): 99.30% | RRT 1.10 ([2]; 25° C./60% RH open, 4 w): 0.32% | RRT 1.17 ([2]; 25° C./60% RH open, 4 w): 0.09% | Contents ([2]; 40° C./75% RH sealed, 1 w): 97.46% | Impurities ([2]; 40° C./75% RH sealed, 1 w): 0.75% | RRT 0.92 ([2]; 40° C./75% RH sealed, 1 w): 0.03% | RRT 0.93 ([2]; 40° C./75% RH sealed, 1 w): 0.06% | RRT 0.95 ([2]; 40° C./75% RH sealed, 1 w): 0.09% | RRT 0.96 ([2]; 40° C./75% RH sealed, 1 w): 0.15% | RRT 1.00 ([2]; 40° C./75% RH sealed, 1 w): 99.25% | RRT 1.10 ([2]; 40° C./75% RH sealed, 1 w): 0.32% | RRT 1.17 ([2]; 40° C./75% RH sealed, 1 w): 0.09% | Contents ([2]; 40° C./75% RH sealed, 4 w): 101.2% | Impurities ([2]; 40° C./75% RH sealed, 4 w): 0.70% | RRT 0.92 ([2]; 40° C./75% RH sealed, 4 w): <LOQ | RRT 0.93 ([2]; 40° C./75% RH sealed, 4 w): 0.06% | RRT 0.95 ([2]; 40° C./75% RH sealed, 4 w): 0.09% | RRT 0.96 ([2]; 40° C./75% RH sealed, 4 w): 0.14% | RRT 1.00 ([2]; 40° C./75% RH sealed, 4 w): 99.30% | RRT 1.10 ([2]; 40° C./75% RH sealed, 4 w): 0.33% | RRT 1.17 ([2]; 40° C./75% RH sealed, 4 w): 0.09% | Impurities ([2]; Initial): 0.78% | RRT 0.92 ([2]; Initial): 0.05% | RRT 0.93 ([2]; Initial): 0.10% | RRT 0.95 ([2]; Initial): 0.09% | RRT 0.96 ([2]; Initial): 0.15% | RRT 1.00 ([2]; Initial): 99.22% | RRT 1.10 ([2]; Initial): 0.31% | RRT 1.17 ([2]; Initial): 0.09% | Appearance ([3]; 25° C./60% RH open, one week): White powder | Contents ([3]; 25° C./60% RH open, one week): 97.26% | Impurities ([3]; 25° C./60% RH open, one week): 0.72% | RRT 0.54 ([3]; 25° C./60% RH open, one week): 0.10% | RRT 0.92 ([3]; 25° C./60% RH open, one week): <LOQ | RRT 0.93 ([3]; 25° C./60% RH open, one week): 0.10% | RRT 0.95 ([3]; 25° C./60% RH open, one week): 0.09% | RRT 0.96 ([3]; 25° C./60% RH open, one week): 0.10% | RRT 1.00 ([3]; 25° C./60% RH open, one week): 99.29% | RRT 1.11 ([3]; 25° C./60% RH open, one week): 0.09% | RRT 1.18 ([3]; 25° C./60% RH open, one week): 0.17% | RRT 1.24 ([3]; 25° C./60% RH open, one week): 0.06% | Appearance ([3]; 40° C./75% RH open, one week): Slight agglomeration | Contents ([3]; 40° C./75% RH open, one week): 96.79% | Impurities ([3]; 40° C./75% RH open, one week): 1.05% | RRT 0.54 ([3]; 40° C./75% RH open, one week): 0.13% | RRT 0.92 ([3]; 40° C./75% RH open, one week): 0.12% | RRT 0.93 ([3]; 40° C./75% RH open, one week): 0.26% | RRT 0.95 ([3]; 40° C./75% RH open, one week): 0.09% | RRT 0.96 ([3]; 40° C./75% RH open, one week): 0.13% | RRT 1.00 ([3]; 40° C./75% RH open, one week): 98.95% | RRT 1.11 ([3]; 40° C./75% RH open, one week): 0.11% | RRT 1.18 ([3]; 40° C./75% RH open, one week): 0.14% | RRT 1.24 ([3]; 40° C./75% RH open, one week): 0.06% | Appearance ([3]; Initial): White powder | Impurities ([3]; Initial): 0.67% | RRT 0.54 ([3]; Initial): 0.11% | RRT 0.92 ([3]; Initial): <LOQ | RRT 0.93 ([3]; Initial): 0.09% | RRT 0.95 ([3]; Initial): 0.09% | RRT 0.96 ([3]; Initial): 0.10% | RRT 1.00 ([3]; Initial): 99.34% | RRT 1.11 ([3]; Initial): 0.07% | RRT 1.18 ([3]; Initial): 0.15% | RRT 1.24 ([3]; Initial): 0.05%
